Measured values published in the NIST ThermoML archive (doi:10.1016/j.fluid.2008.06.006).

How the values were obtained:
[1] = refractive index (Na D-line) (dimensionless); conditions: 298.15 K; 101.33 kPa; Liquid; Standard Abbe refractometry
[2] = for vapor or sublimation pressure / mass density: Liquid; for mass density: 298.15 K, 101.33 kPa; for surface tension liquid-gas: 303.15 K, Ring tensiometer
[3] = xn = mol fraction of the nth substance listed; conditions: 303.15 K, Maximal bubble pressure

CC(C)OC(C)C [diisopropyl ether]
Conditions	mass density [kg/m3]	refractive index	surface tension liquid-gas [mN/m]
[1]	–	1.36644	–
[2]	718.34	–	16.7

[2], Ebulliometric method (Recirculating still)
Conditions	vapor or sublimation pressure [kPa]
293.25 K	16.02
302.42 K	24.02
307.79 K	30.02
313.73 K	38.02
318.15 K	45.02
321.52 K	51.01
325.55 K	59.01
328.74 K	66.01
331.67 K	73.01
334.38 K	80.01
336.91 K	87.01

C1CCCCC1 [cyclohexane]
Conditions	mass density [kg/m3]	refractive index	surface tension liquid-gas [mN/m]
[1]	–	1.42508	–
[2]	773.84	–	24.1

[2]
Conditions	vapor or sublimation pressure [kPa]
302.71 K	16.01
312.45 K	24.02
318.13 K	30.03
324.4 K	38.02
329.08 K	45.03
332.63 K	51.01
336.88 K	59.01
340.25 K	66.01
343.34 K	73.02
346.22 K	80.03
348.89 K	87.02
351.4 K	94.02
354.06 K	101.9

CC(C)=O [acetone] + C1CCCCC1
[3]
Conditions	surface tension liquid-gas [mN/m]
x1 = 0.047	23.85
x1 = 0.091	23.6
x1 = 0.185	23.1
x1 = 0.298	22.7
x1 = 0.403	22.4
x1 = 0.513	22.2
x1 = 0.621	22.1
x1 = 0.736	22.05
x1 = 0.842	22.15
x1 = 0.943	22.4

CC(C)OC(C)C [diisopropyl ether] + CC(C)=O
[3]
Conditions	surface tension liquid-gas [mN/m]
x2 = 0.046	16.75
x2 = 0.089	16.8
x2 = 0.187	16.95
x2 = 0.29	17.3
x2 = 0.39	17.65
x2 = 0.499	18.05
x2 = 0.61	18.6
x2 = 0.722	19.2
x2 = 0.829	20.15
x2 = 0.93	21.3
x2 = 0.973	21.94

CC(C)=O [acetone]
Conditions	mass density [kg/m3]	refractive index	surface tension liquid-gas [mN/m]
[1]	–	1.35732	–
[2]	784.23	–	22.45

[2], Ebulliometric method (Recirculating still)
Conditions	vapor or sublimation pressure [kPa]
297.65 K	30.06
303.23 K	38.04
307.39 K	45.04
310.58 K	51.08
314.35 K	59.07
317.33 K	66.06
320.08 K	73.08
322.61 K	80.07
324.96 K	87.09
327.17 K	94.07
329.33 K	101.35

CC(C)OC(C)C [diisopropyl ether] + C1CCCCC1
[3]
Conditions	surface tension liquid-gas [mN/m]
x1 = 0.049	23.3
x1 = 0.098	22.7
x1 = 0.199	21.4
x1 = 0.301	20.7
x1 = 0.403	19.75
x1 = 0.509	19
x1 = 0.622	18.3
x1 = 0.727	17.8
x1 = 0.837	17.3
x1 = 0.936	16.9
x1 = 0.967	16.8
